From paper PMC5218480 (PLoS ONE, 2017)

Test system: MV-4-11 cells
Assay: Gene expression microarray analysis (Affymetrix PrimeView) and GSEA
Format: cell-based, human
Design: RFU PODN (11730768_x_at) / Fold change /veh PODN (11730768_x_at) / RFU LINC00158 (11744669_a_at) / Fold change /veh LINC00158 (11744669_a_at) / RFU DUSP10 (11751237_a_at) / Fold change /veh DUSP10 (11751237_a_at) / RFU ID3 (11757404_x_at) / Fold change /veh ID3 (11757404_x_at) / RFU PLEKHG5 (11737974_s_at) / Fold change /veh PLEKHG5 (11737974_s_at) / RFU LRRC4B (11730491_at) / Fold change /veh LRRC4B (11730491_at) / RFU GIMAP4 (11747438_a_at) / Fold change /veh GIMAP4 (11747438_a_at) / RFU KRT8 (11758183_x_at) / Fold change /veh KRT8 (11758183_x_at) / RFU CNN1 (11734310_a_at) / Fold change /veh CNN1 (11734310_a_at) / RFU VPS37D (11726825_at) / Fold change /veh VPS37D (11726825_at) / RFU C10orf10 (11716522_x_at) / Fold change /veh C10orf10 (11716522_x_at) / RFU KIR2DL2 /// KIR2DL4 /// KIR2DL5A /// KIR2DL5B /// KIR2DS1 /// KIR2DS2 /// KIR2DS3 /// KIR2DS4 /// KIR3DL3 /// KIR3DL3 /// KIR3DS1 (11738374_at) / Fold change /veh KIR2DL2 /// KIR2DL4 /// KIR2DL5A /// KIR2DL5B /// KIR2DS1 /// KIR2DS2 /// KIR2DS3 /// KIR2DS4 /// KIR3DL3 /// KIR3DL3 /// KIR3DS1 (11738374_at) / RFU C1QL1 (11718748_at) / Fold change /veh C1QL1 (11718748_at) / RFU TMPRSS4 (11747572_a_at) / Fold change /veh TMPRSS4 (11747572_a_at) / RFU HAMP (11756126_x_at) / Fold change /veh HAMP (11756126_x_at) / RFU RNFT2 (11725882_a_at) / Fold change /veh RNFT2 (11725882_a_at) / RFU NR4A2 (11747474_a_at) / Fold change /veh NR4A2 (11747474_a_at) / RFU ABCC12 (11746883_a_at) / Fold change /veh ABCC12 (11746883_a_at) / RFU TMEM136 (11760407_x_at) / Fold change /veh TMEM136 (11760407_x_at) / RFU CLDN22 /// WWC2 (11732394_at) / Fold change /veh CLDN22 /// WWC2 (11732394_at) / RFU HLA-DPB1 (11760878_x_at) / Fold change /veh HLA-DPB1 (11760878_x_at) / RFU SPINT1 (11716480_a_at) / Fold change /veh SPINT1 (11716480_a_at) / RFU GAP43 (11754022_s_at) / Fold change /veh GAP43 (11754022_s_at) / RFU A4GNT (11735810_at) / Fold change /veh A4GNT (11735810_at) / RFU PRB3 (11715151_x_at) / Fold change /veh PRB3 (11715151_x_at) / RFU TUBB4B (11761932_at) / Fold change /veh TUBB4B (11761932_at) / RFU CAPN14 (11732068_a_at) / Fold change /veh CAPN14 (11732068_a_at) / RFU TMCC2 (11721928_a_at) / Fold change /veh TMCC2 (11721928_a_at) / RFU IRGQ (11745062_a_at) / Fold change /veh IRGQ (11745062_a_at) / RFU FAM174B (11720279_a_at) / Fold change /veh FAM174B (11720279_a_at) / RFU TMPRSS4 (11748680_a_at) / Fold change /veh TMPRSS4 (11748680_a_at) / RFU FAM212B (11763350_a_at) / Fold change /veh FAM212B (11763350_a_at) / RFU PLEKHG5 (11743358_a_at) / Fold change /veh PLEKHG5 (11743358_a_at) / RFU ZSCAN30 (11745921_a_at) / Fold change /veh ZSCAN30 (11745921_a_at) / RFU CMKLR1 (11741424_a_at) / Fold change /veh CMKLR1 (11741424_a_at) / RFU LOC101060620 /// MAPK8IP1 (11723275_at) / Fold change /veh LOC101060620 /// MAPK8IP1 (11723275_at) / RFU SPTSSB (11747773_x_at) / Fold change /veh SPTSSB (11747773_x_at) / RFU PRSS12 (11739890_at) / Fold change /veh PRSS12 (11739890_at) / RFU BIN1 (11741810_x_at) / Fold change /veh BIN1 (11741810_x_at) / RFU WNT11 (11732464_a_at) / Fold change /veh WNT11 (11732464_a_at) / RFU C10orf10 (11716521_a_at) / Fold change /veh C10orf10 (11716521_a_at) / RFU C5orf56 (11738089_at) / Fold change /veh C5orf56 (11738089_at) / RFU CYB561 (11721691_x_at) / Fold change /veh CYB561 (11721691_x_at) / RFU ANKRD19P (11752326_a_at) / Fold change /veh ANKRD19P (11752326_a_at) / RFU OR2T12 /// OR2T33 /// OR2T8 (11738714_s_at) / Fold change /veh OR2T12 /// OR2T33 /// OR2T8 (11738714_s_at) / RFU VCAN (11748164_a_at) / Fold change /veh VCAN (11748164_a_at) / RFU JSRP1 (11732532_at) / Fold change /veh JSRP1 (11732532_at) / RFU KRTAP10-11 (11738290_x_at) / Fold change /veh KRTAP10-11 (11738290_x_at) / RFU MYO3A (11730013_a_at) / Fold change /veh MYO3A (11730013_a_at) / RFU EBF3 (11725865_a_at) / Fold change /veh EBF3 (11725865_a_at) / RFU CAMK2N1 (11719241_x_at) / Fold change /veh CAMK2N1 (11719241_x_at) / RFU C5orf56 (11738088_a_at) / Fold change /veh C5orf56 (11738088_a_at) / RFU OLFML3 (11715873_a_at) / Fold change /veh OLFML3 (11715873_a_at) / RFU LOC100653217 /// NTM (11731650_a_at) / Fold change /veh LOC100653217 /// NTM (11731650_a_at) / RFU MAPK11 (11762145_a_at) / Fold change /veh MAPK11 (11762145_a_at) / RFU FIZ1 (11724087_x_at) / Fold change /veh FIZ1 (11724087_x_at) / RFU OASL (11726364_x_at) / Fold change /veh OASL (11726364_x_at) / RFU SOX15 (11748057_x_at) / Fold change /veh SOX15 (11748057_x_at) / RFU CD79A (11719716_a_at) / Fold change /veh CD79A (11719716_a_at) / RFU HIST1H1D (11736915_at) / Fold change /veh HIST1H1D (11736915_at) / RFU CASKIN2 (11723855_a_at) / Fold change /veh CASKIN2 (11723855_a_at) / RFU LOC730098 (11760151_x_at) / Fold change /veh LOC730098 (11760151_x_at) / RFU OR4N2 (11742367_at) / Fold change /veh OR4N2 (11742367_at) / RFU PRRT2 (11749266_a_at) / Fold change /veh PRRT2 (11749266_a_at) / RFU SNX32 (11753110_a_at) / Fold change /veh SNX32 (11753110_a_at) / RFU CDHR5 (11726645_a_at) / Fold change /veh CDHR5 (11726645_a_at) / RFU RCAN1 (11760418_a_at) / Fold change /veh RCAN1 (11760418_a_at) / RFU FAM167A (11723789_a_at) / Fold change /veh FAM167A (11723789_a_at) / RFU FAM26E (11764081_at) / Fold change /veh FAM26E (11764081_at) / RFU ISYNA1 (11749810_s_at) / Fold change /veh ISYNA1 (11749810_s_at) / RFU ACY1 (11761880_at) / Fold change /veh ACY1 (11761880_at) / RFU 11764098_at / Fold change /veh 11764098_at / RFU SAMD14 (11745864_x_at) / Fold change /veh SAMD14 (11745864_x_at) / RFU NPB (11741838_a_at) / Fold change /veh NPB (11741838_a_at) / RFU TMPRSS6 (11731388_a_at) / Fold change /veh TMPRSS6 (11731388_a_at) / RFU KRTAP10-2 (11738614_at) / Fold change /veh KRTAP10-2 (11738614_at) / RFU ARHGAP8 /// PRR5-ARHGAP8 (11727945_x_at) / Fold change /veh ARHGAP8 /// PRR5-ARHGAP8 (11727945_x_at) / RFU KRTAP5-7 /// NADSYN1 (11734609_at) / Fold change /veh KRTAP5-7 /// NADSYN1 (11734609_at) / RFU RASL12 (11751679_a_at) / Fold change /veh RASL12 (11751679_a_at) / RFU CDKN2B (11736163_a_at) / Fold change /veh CDKN2B (11736163_a_at) / RFU PRF1 (11729649_at) / Fold change /veh PRF1 (11729649_at) / RFU, ZNF638 /// ZNF638-IT1 / Fold change vs veh, ZNF638 /// ZNF638-IT1 / RFU, PANK3 / Fold change vs veh, PANK3 / RFU, SH3YL1 / Fold change vs veh, SH3YL1 / RFU, ZEB2 / Fold change vs veh, ZEB2 / RFU, NRIP1 / Fold change vs veh, NRIP1 / RFU, PTTG1IP / Fold change vs veh, PTTG1IP / RFU, CAPN2 / Fold change vs veh, CAPN2 / RFU, MED14 / Fold change vs veh, MED14 / RFU, SNORA58 / Fold change vs veh, SNORA58 / RFU, C1orf63 / Fold change vs veh, C1orf63 / RFU, LRRFIP1 / Fold change vs veh, LRRFIP1 / RFU, NDUFAF7 / Fold change vs veh, NDUFAF7 / RFU, SLC12A2 / Fold change vs veh, SLC12A2 / RFU, IBTK / Fold change vs veh, IBTK / RFU, ESF1 / Fold change vs veh, ESF1 / Fold change vs veh, TMEM50B / RFU, TAOK1 / Fold change vs veh, TAOK1 / RFU, ACBD3 / Fold change vs veh, ACBD3 / RFU, TMA16 / Fold change vs veh, TMA16 / RFU, RWDD3 / Fold change vs veh, RWDD3 / RFU, BCAT1 / Fold change vs veh, BCAT1 / RFU, EDEM3 / Fold change vs veh, EDEM3 / RFU, TMEM33 / Fold change vs veh, TMEM33 / RFU, WDR75 / Fold change vs veh, WDR75 / RFU, AHCTF1 / Fold change vs veh, AHCTF1 / RFU, TFRC / Fold change vs veh, TFRC / RFU, ZDHHC17 / Fold change vs veh, ZDHHC17 / RFU, NOM1 / Fold change vs veh, NOM1 / RFU, ARL8B / Fold change vs veh, ARL8B / RFU, ZBTB11 / Fold change vs veh, ZBTB11 / RFU, TAMM41 / Fold change vs veh, TAMM41 / RFU, KIAA1704 /// LOC100996395 / Fold change vs veh, KIAA1704 /// LOC100996395 / RFU, ING1 / Fold change vs veh, ING1 / RFU, TRMT61B / Fold change vs veh, TRMT61B / RFU, FUBP3 / Fold change vs veh, FUBP3 / RFU, TP53 / Fold change vs veh, TP53 / RFU, TNKS2 / Fold change vs veh, TNKS2 / RFU, ZFP14 / Fold change vs veh, ZFP14 / RFU, ACTR2 / Fold change vs veh, ACTR2 / RFU, PPP3R1 / Fold change vs veh, PPP3R1 / RFU, PIK3R1 / Fold change vs veh, PIK3R1 / RFU, HNRNPA1 / Fold change vs veh, HNRNPA1 / RFU, RNF170 / Fold change vs veh, RNF170 / RFU, ZNF28 / Fold change vs veh, ZNF28 / RFU, RNGTT / Fold change vs veh, RNGTT / RFU, OGT / Fold change vs veh, OGT / RFU, BRD1 / Fold change vs veh, BRD1 / RFU, MARS / Fold change vs veh, MARS / RFU, ZNF655 / Fold change vs veh, ZNF655 / RFU, FAHD1 / Fold change vs veh, FAHD1 / RFU, BDP1 / Fold change vs veh, BDP1 / RFU, LRRCC1 / Fold change vs veh, LRRCC1 / RFU, ARID1A / Fold change vs veh, ARID1A / RFU, ZNF146 / Fold change vs veh, ZNF146 / RFU, ZNF330 / Fold change vs veh, ZNF330 / RFU, GPN3 / Fold change vs veh, GPN3 / RFU, C9orf123 / Fold change vs veh, C9orf123 / RFU, N4BP2L2 / Fold change vs veh, N4BP2L2 / RFU, ARFIP1 / Fold change vs veh, ARFIP1 / RFU, FAM179B / Fold change vs veh, FAM179B / RFU, BCL10 / Fold change vs veh, BCL10 / RFU, UHRF1BP1L / Fold change vs veh, UHRF1BP1L / RFU, BET1 / Fold change vs veh, BET1 / RFU, CNOT2 / Fold change vs veh, CNOT2 / RFU, ZNF268 / Fold change vs veh, ZNF268 / Fold change vs veh, ZNF507 / RFU, DGCR2 / Fold change vs veh, DGCR2 / RFU, WDSUB1 / Fold change vs veh, WDSUB1 / Fold change vs veh, HSP90B1 /// MIR3652 / RFU, ADSS / Fold change vs veh, ADSS / RFU, GK / Fold change vs veh, GK / RFU, ZNF148 / Fold change vs veh, ZNF148 / RFU, TAF9 / Fold change vs veh, TAF9 / RFU, SLC1A5 / Fold change vs veh, SLC1A5 / RFU, SLMO2 / Fold change vs veh, SLMO2 / RFU, ABCC4 / Fold change vs veh, ABCC4 / RFU, LOC101060439 /// RAP1B / Fold change vs veh, LOC101060439 /// RAP1B / RFU, RFX7 / Fold change vs veh, RFX7 / RFU, GTPBP10 / Fold change vs veh, GTPBP10 / RFU, CNEP1R1 / Fold change vs veh, CNEP1R1 / RFU, BIVM-ERCC5 /// ERCC5 / Fold change vs veh, BIVM-ERCC5 /// ERCC5 / RFU, ILF3 / Fold change vs veh, ILF3 / RFU 11762660_at / Fold change /veh 11762660_at / RFU VCAN (11757783_s_at) / Fold change /veh VCAN (11757783_s_at) / RFU DDX43 (11728927_at) / Fold change /veh DDX43 (11728927_at) / RFU KRT8 (11758188_x_at) / Fold change /veh KRT8 (11758188_x_at) / RFU NKD1 (11759106_at) / Fold change /veh NKD1 (11759106_at) / RFU SRD5A1 (11742802_a_at) / Fold change /veh SRD5A1 (11742802_a_at) / RFU TPSAB1 /// TPSB2 (11721975_s_at) / Fold change /veh TPSAB1 /// TPSB2 (11721975_s_at) / RFU GSTM3 (11746129_a_at) / Fold change /veh GSTM3 (11746129_a_at) / RFU IL23R (11737362_x_at) / Fold change /veh IL23R (11737362_x_at) / RFU TMEM51 (11727254_a_at) / Fold change /veh TMEM51 (11727254_a_at) / RFU PIWIL2 (11732686_x_at) / Fold change /veh PIWIL2 (11732686_x_at) / RFU ORM1 (11744905_x_at) / Fold change /veh ORM1 (11744905_x_at) / RFU CCDC152 (11743942_at) / Fold change /veh CCDC152 (11743942_at) / RFU ECM1 (11717891_a_at) / Fold change /veh ECM1 (11717891_a_at) / RFU IL23R (11748794_a_at) / Fold change /veh IL23R (11748794_a_at) / RFU TNFAIP8L3 (11732012_x_at) / Fold change /veh TNFAIP8L3 (11732012_x_at) / RFU MBOAT4 (11741988_at) / Fold change /veh MBOAT4 (11741988_at) / RFU 11764193_at / Fold change /veh 11764193_at / RFU TMEM53 (11763286_at) / Fold change /veh TMEM53 (11763286_at) / RFU MAGEB2 (11727129_at) / Fold change /veh MAGEB2 (11727129_at) / RFU TMEM200A (11744735_a_at) / Fold change /veh TMEM200A (11744735_a_at) / RFU CCDC152 (11751479_a_at) / Fold change /veh CCDC152 (11751479_a_at) / RFU FAM211A (11726209_a_at) / Fold change /veh FAM211A (11726209_a_at) / RFU RGS16 (11746705_a_at) / Fold change /veh RGS16 (11746705_a_at) / RFU VCAN (11755009_s_at) / Fold change /veh VCAN (11755009_s_at) / RFU RHOB (11743442_s_at) / Fold change /veh RHOB (11743442_s_at) / RFU RGS16 (11720943_a_at) / Fold change /veh RGS16 (11720943_a_at) / RFU RGS16 (11720944_at) / Fold change /veh RGS16 (11720944_at) / RFU, VPS4B / Fold change vs veh, VPS4B / RFU, CREB1 / Fold change vs veh, CREB1 / RFU, DNAJC13 / Fold change vs veh, DNAJC13 / RFU, GNAQ / Fold change vs veh, GNAQ / RFU, CDK5R1 / Fold change vs veh, CDK5R1 / RFU, ZRANB3 / Fold change vs veh, ZRANB3 / RFU, CUL4A / Fold change vs veh, CUL4A / RFU, CCNY / Fold change vs veh, CCNY / RFU, UFL1 / Fold change vs veh, UFL1 / RFU, COG3 / Fold change vs veh, COG3 / RFU, DIAPH2 / Fold change vs veh, DIAPH2 / RFU, SKA2 / Fold change vs veh, SKA2 / RFU, AFF3 / Fold change vs veh, AFF3 / RFU, LMF1 / Fold change vs veh, LMF1 / RFU, IPO11 / Fold change vs veh, IPO11 / RFU, DFFB / Fold change vs veh, DFFB / RFU, FOXP1 / Fold change vs veh, FOXP1 / RFU, CARD8 / Fold change vs veh, CARD8 / RFU, STRN3 / Fold change vs veh, STRN3 / RFU, ADK / Fold change vs veh, ADK / RFU, RASSF2 / Fold change vs veh, RASSF2 / RFU, WIPF1 / Fold change vs veh, WIPF1 / RFU, LARP1B / Fold change vs veh, LARP1B / RFU, RASA1 / Fold change vs veh, RASA1 / RFU, RB1 / Fold change vs veh, RB1 / RFU, PPFIA1 / Fold change vs veh, PPFIA1 / RFU, MAT2A / Fold change vs veh, MAT2A / RFU, CCT5 / Fold change vs veh, CCT5 / RFU, WDR92 / Fold change vs veh, WDR92 / RFU, CUX1 / Fold change vs veh, CUX1 / RFU, TTC7A / Fold change vs veh, TTC7A / RFU, TMEM135 / Fold change vs veh, TMEM135 / RFU, DEPTOR / Fold change vs veh, DEPTOR / RFU, CPM / Fold change vs veh, CPM / RFU, DNAJB6 / Fold change vs veh, DNAJB6 / RFU, CACNA2D3 / Fold change vs veh, CACNA2D3 / RFU, DTX4 / Fold change vs veh, DTX4 / RFU, TFCP2 / Fold change vs veh, TFCP2 / RFU, GMCL1 /// GMCL1P1 / Fold change vs veh, GMCL1 /// GMCL1P1 / RFU, AEBP2 / Fold change vs veh, AEBP2 / RFU, SNHG1 /// SNORD22 /// SNORD25 /// SNORD26 /// SNORD27 /// SNORD28 /// SNORD29 /// SNORD31 / Fold change vs veh, SNHG1 /// SNORD22 /// SNORD25 /// SNORD26 /// SNORD27 /// SNORD28 /// SNORD29 /// SNORD31 / Fold change (Aza/veh), C12orf56 (ProbeSet 11735607_a_at) / Fold change (ACY-1035/veh), C12orf56 (ProbeSet 11735607_a_at) / Fold change (Aza/veh), FGFR1OP (ProbeSet 11751329_s_at) / Fold change (ACY-1035/veh), FGFR1OP (ProbeSet 11751329_s_at) / Fold change (Aza/veh), VPS36 (ProbeSet 11739960_a_at) / Fold change (ACY-1035/veh), VPS36 (ProbeSet 11739960_a_at) / RFU SYPL1 (11715823_x_at) / Fold change /veh SYPL1 (11715823_x_at) / RFU IGFBP7 (11715501_s_at) / Fold change /veh IGFBP7 (11715501_s_at) / RFU REEP3 (11722064_at) / Fold change /veh REEP3 (11722064_at) / RFU IGLL1 (11728026_x_at) / Fold change /veh IGLL1 (11728026_x_at): dose or concentration left out as unconfirmed
Conditions: ProbeSet 11721969_s_at; LIST B

Nc1ncn([C@@H]2O[C@H](CO)[C@@H](O)[C@H]2O)c(=O)n1 [azacitidine] was tested, and the “RFU, BDP1” value was 496.27 RFU.
